# According to US20110289043A1, “COMPUTATIONAL METHODS AND COMPOSITIONS” (Brown University Research Foundation, priority 2010, published 2011):
# B1: CCL19: chemokine (R&D Systems) used as chemoattractant for T cells (protein, UniProt Q99731 22-98, looked up)
# C-C motif chemokine 19: GTNDAEDCCLSVTQKPIPGYIVRNFHYLLIKDGCRVPAVVFTTLRGRQLCAPPDQPWVERIIQRLQRTSAKMKRRSS
# Assays:
# RBCs = experiment: Deformability cytometer: velocity/passage of glutaraldehyde-treated RBCs through constriction channels; assay type: cell-based, human
# Experimental: FIG. 5B depicts the results of an experiment evaluating the velocity at different glutaraldehyde concentrations of RBCs moving through the two pore geometries. RBCs were treated with the indicated concentrations of glutaraldehyde for 30 minutes in PBS and then washed 3 times. The pressure difference/length was approximately 0.61 Pa/μm.
# PBS was mixed with 0.2% w/v Pluronic F-108 (BASF, Mount Olive, N.J.) and 1% w/v Bovine Serum Albumin (BSA) (Sigma-Aldrich, St. Louis, Mo.) as a stock solution to prevent RBC adhesion to the device walls. For the fluorescent bead experiments, 200 nm FluoSpheres europium luminescent microspheres (Molecular Probes, Eugene, Oreg.) diluted to a final concentration of 1.25×10^−5 percent solids were used.
# In experiments involving blood, 1 μl of whole blood (−50% hematocrit) was diluted in 100 μl of the PBS-pluronic-BSA solution for all of the experiments. In experiments involving parasites that express GFP, no further treatment was performed. In experiments involving healthy RBCs, 1 μl of whole blood (Research Blood Components, Brighton, Mass.), 1 μl of 50 μg/ml of Cell Tracker Orange (Invitrogen, Carlsbad, Calif.), and 98 μl of PBS were mixed with the indicated concentration of glutaraldehyde and allowed to sit for 30 minutes. The sample was then washed 3 times with the PBS-Pluronic-BSA solution. In experiments involving reticulocytes, 1 μl of whole blood, 89 μl of the PBS-Pluronic-BSA solution, and 10 μl of 1×10^−6M thiazole orange were mixed and allowed to sit for 20 minutes before starting experiments. Videos were obtained in which reticulocytes appear as uniformly fluorescent cells under the GFP filter set, while mature RBCs appear as shadows.
# The PBS-Pluronic-BSA solution was pumped through the device for 30 minutes to coat the device walls with Pluronic and BSA. The RBC-PBS-Pluronic-BSA suspension was then injected into the device. Differences in pressure between the two reservoirs were generated hydrostatically by a difference in water column height. […]
# [1] = tested on: P. falciparum-infected RBCs (iRBCs) and co-cultured uninfected RBCs (uRBCs); experiment: Microfluidic deformability (cell mobility) of RBCs after artesunate drug treatment; assay type: cell-based, human; conditions: for separation resolution between iRBCs and uRBCs: after artesunate drug treatment; for effect on RBC deformability (cell mobility): artesunate 0.01 to 0.1 μg/ml, 2, 4 and 6 hours
# Experimental: FIG. 60 provides cell mobility plots for both infected cells (shown by diamond symbols) and co-cultured uninfected cells (shown by circle symbols) with and without Artesunate drug treatment. The drug effect was traced at 2, 4 and 6 hours after drug treatment. Measurements were done at physiologically relevant dosage from 0.01 to 0.1 μg/ml.
# The deformability of both iRBCs and uRBCs were measured at 2, 4 and 6 hours after artesunate drug treatment (FIG. 60). A synchronized culture of rings with ˜15% parasitemia was resuspended at 0.1% hematocrit in malaria culture medium containing 0.01, 0.05 or 0.1 μg/ml of artesunate.
# P. falciparum 3D7A parasites (from Malaria Research and Reference Reagent Source, American Type Culture Collection) were cultured in leukocyte-free human RBCs (Research Blood Components, Brighton Mass.) in RPMI 1640 complete medium as described (Trager and Jensen J. parasitol. 2005). Parasites cultures were synchronized by sorbitol lysis (Lambros, C 1979 J. parasitol.) two hours after merozoite invasion.
# 1× Phosphate buffered saline (PBS) was mixed with 1% w/v Bovine Serum Albumin (BSA) (Sigma-Aldrich, St. Louis, Mo.) as a stock solution and was fresh made on every experimental day. For experiments tracking fluid flow velocity, 200 nm FluoSpheres europium luminescent microspheres (Molecular Probes, Eugene, Oreg.) were used at a final concentration of 5.0×10^−4 percent solids. For experiments involving only healthy RBCs, fresh whole blood (Research Blood Components, Brighton, Mass.) was used at 100 times dilution (i.e. 1 μl whole blood with 99 μl stock solution). For experiments involving parasitized cells, 1 ml of cultured cells were spun down at 1,000 rpm for 5 minute; 1 μl of the pellet was then aliquot to 200 μl stock solution.
# 10 μl of 1×10^−6M thiazole orange Orange (Invitrogen, Carlsbad, Calif.), which stains the RNA of the cell, was added to the aforementioned 200 μl iRBC solution 20 minutes before the experiment. The infected cells would appear fluorescent under the GFP filter set whereas the uninfected cells were seen as dark shadows.
# To control the ambient temperature, the microscope surface was replaced by a heating chamber (Olympus), which was preheated to a desired temperature range (i.e. 30-40° C.) for 30 minutes before the beginning of every experiment. Meanwhile, the PBS-BSA stock solution was injected into the device to coat the PDMS walls to prevent adhesion. This filling step need not be done inside the heating chamber, but the PBS-BSA filled device needed to be placed into the heating chamber at least 5 minutes before loading 10 μL of diluted blood sample. During temperature calibration phase, a thermal meter was used to probe the exact temperature inside the heating chamber. When the temperature needed to be adjusted to a different value, at least 5 minutes of waiting time was required to ensure a new stable ambient temperature.
# To apply a constant pressure gradient across the device, the pressure difference between inlet and outlet reservoir was generated hydrostatically by fixing the difference between inlet and outlet water column height (FIG. 55A).
# To capture the movement of RBCs inside the microchannels, a CCD camera (Hamamatsu Photonics, C4742-80-12AG, Japan) was connected to the inverted fluorescent microscope (Olympus IX71, Center Valley, Pa.). Images were automatically acquired by IPLab (Scanalytics, Rockville, Md.) at 100 ms time interval and the post-imaging analysis was done using imageJ. The mobility of individual RBCs was defined as the distance the cells moved divide by the time in seconds.
# WT T cells [2] = experiment: Micropipette aspiration of CCL19-stimulated migratory T cells; assay type: cell-based, mouse
# Experimental: Enriched WT and WAS−/− T cells in DMEM with 1% BSA and 0.1% Pen/Strep were induced to migrate through polycarbonate Transwell inserts (Costar, Cambridge, Mass.) with 5-μm pores in a 24-well plate toward a CCL19 chemokine source (R&D Systems, Minneapolis, Minn.). Inserts contained 5×10^5 cells in 100 μL of medium, and wells contained 1 mL of medium with either no CCL19 or 100 ng/mL of CCL19. Cells were allowed to migrate for ˜7 hours at 37° C., and those that crossed the membrane were collected and used for MPA studies.
# 3×10^5 cells in 100 μL RPMI with 10% FBS and 1% HEPES was stained with 10 μL trypan blue. The mixture was added to 600 μL of either the RPMI medium or the T cell activation medium with IL-2 for naïve and activated T cell testing. Migratory T cells were tested in the medium used for migration. The MPA device was based on the design of Hochmuth et al (18). The aspiration rate and volume were 36 mL/hr and 2 mL, corresponding to a total pressure of ˜400 Pa. The cell movement in the micropipette was recorded with a CCD camera. Aspirations were performed at approximately room temperature.
# MPA data were fitting using the half-space model (77) described by the expressions: […]
# WT T cells [3] = experiment: FACS analysis of phenotype of T cells induced to migrate by CCL19; assay type: cell-based, mouse; conditions: after CCL19 exposure (100 ng/mL) for seven hours
# Experimental: FIG. 68 depicts results of a FACS analysis of phenotype of naïve WT T cells induced to migrate by the chemokine CCL19. T cells were first gated on PI to exclude dead cells. The cell samples tested were naïve T cells not exposed to CCL 19 (A, D), cells that remained in the insert after CCL19 exposure (100 ng/mL) for seven hours (B, E), and cells that migrated across the insert membrane after the same chemokine treatment (C, F).
# (§1) Cells from the peripheral lymph nodes and the spleen of Balb/c mice and WAS−/− mice on Balb/c background were pooled and enriched using the EasySep Mouse CD8+ T Cell Enrichment Kit from STEMCELL Technologies (British Columbia, Canada). Enrichment was confirmed using fluorescence-activated cell sorting (FACS) by staining the cells with FITC/anti-Thy1.2 and PE/anti-CD8α antibodies (Abs). The memory T cell population was assessed by evaluating the expression of CD44 and CD62L via FACS. T cells in an activation medium with 100 units/mL IL-2 and 1% anti-CD28 Ab were activated by plate-bound anti-CD3 Abs for 4 day at 37° C. The activation medium included RPMI with 10% FBS, 10 mM HEPES (1M), 1% NEAA, 1% sodium pyruvate (100 mM), 50 μM (β-mercaptoethanol, 4 mM L-glutamine, and 100 μg/mL Pen/Strep. Cell activation was verified via FACS measurement of CD25.
# WAS−/− T cells = experiment: In vitro Transwell cell migration toward CCL19; assay type: cell-based, mouse; conditions: after seven hours of exposure to CCL19 (100 ng/mL), 5-μm pore Transwell
# Experimental: as §1, with “CD25. Enriched WT and WAS−/− T cells in DMEM with 1% BSA and 0.1% Pen/Strep were induced to migrate through polycarbonate Transwell inserts (Costar, Cambridge, Mass.) with 5-μm pores in a 24-well plate toward a CCL19 chemokine source (R&D Systems, Minneapolis, Minn.). Inserts contained 5×10^5 cells in 100 μL of medium, and wells contained 1 mL of medium with either no CCL19 or 100 ng/mL of CCL19. Cells were allowed to migrate for ˜7 hours at 37° C., and those that crossed the membrane were collected and used for MPA studies.” for “CD25.”
molecule,measurement,setting,value
O=CCCCC=O [glutaraldehyde],RBC stiffness / velocity with increasing glutaraldehyde concentration,"RBCs; 30 minutes treatment in PBS, approximately 0.61 Pa/μm",progressively stiffer with decreasing velocity
same,RBC passage at high glutaraldehyde concentration,RBCs; glutaraldehyde concentrations greater than 0.003%,most RBCs were held up at the entrance to the channel
same,RBCs passed through the channels,"RBCs; glutaraldehyde concentrations less than 0.002%, treatment for 30 minutes",more than 95%
C[C@H]1[C@H](OC(=O)CCC(=O)O)O[C@@H]2O[C@@]3(C)CC[C@H]4[C@H](C)CC[C@@H]1[C@@]24OO3 [artesunate],mobility decrease,[1]; 2 and 4 hours after artesunate treatment,smaller and less pronounced mobility decrease
same,mobility decrease,"[1]; 6 hours after artesunate treatment, 0.01, 0.05 or 0.1 μg/ml",30%-50%
same,separation resolution between iRBCs and uRBCs,[1],almost doubled
same,separation resolution between iRBCs and uRBCs,[1]; listed as Artesunate,doubled
same,effect on RBC deformability (cell mobility),[1],stiffening effect on both iRBCs and uRBCs
same,effect on RBC deformability (cell mobility),[1]; listed as Artesunate,significant decrease in cell mobility
B1,reduction of modulus from the value measured in the absence of CCL19,WT T cells [2],more than 2 times
same,migrating cells stained CD62L high and CD44 low (naive phenotype),WT T cells [3],~90%
same,cells migrated,WAS−/− T cells,~6.4%
